Laboratory results published in PubChem BioAssay AID2060906 (Molecular Pharmacology Branch, DTP, NCI, 2025).

Test system: 485176-168-R4-J1-PDC complex spheroid growth
Experiment: Anticancer human tumor 485176-168-R4-J1-PDC patient-derived pancreatic adenocarcinoma cell line growth inhibition [RAS]
Settings: for viability, T/C: stronger effect = lower value
How it was run: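 Multi-cell-type spheroids: tumor cells plus HUVEC endothelial cells and mesenchymal stem cells. RAS-pathway inhibitors were combined with targeted agents, each dosed in half-log steps down from clinical Cmax, or from 10 microM when Cmax was unknown.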

[1] = curve of first compound, second compound 0.0316 µM
[2] = curve of first compound, second compound 0.1 µM
[3] = curve of first compound, second compound 0.316 µM
[4] = curve of first compound, second compound 1 µM
[5] = curve of first compound, second compound 3.16 µM
[6] = curve of first compound, second compound 10 µM
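Further: spheroids exposed to compounds for seven days before readout.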
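Wherever viability, T/C is given: luminescence viability expressed relative to DMSO vehicle wells set as 100%.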

Nc1ccn(C2OC(CO)C(O)C2(F)F)c(=O)n1 (stereo unspecified)
viability, T/C (compound 0.00316 µM): 97.3% [middle of 4 runs]
viability, T/C (compound 0.0316 µM): 17.7% [middle of 4 runs]
viability, T/C (compound 0.1 µM): 9.63% [middle of 4 runs]
viability, T/C (compound 0.316 µM): 9.78% [middle of 4 runs]
viability, T/C (compound 1 µM): 12.4% [middle of 4 runs]
IC50 (curve of compound): 16.7 nM [middle of 4 runs]

C[C@@H](NC(=O)c1ncnc(N)c1Cl)c1ncc(C(=O)Nc2cc(C(F)(F)F)c(Cl)cn2)s1 + C#Cc1c(F)ccc2cc(O)cc(-c3ncc4c(N5CC6CCC(C5)N6)nc(OCC56CCCN5CC(F)C6)nc4c3F)c12
IC50 [1]: > 10000 nM
IC50 [2]: > 10000 nM
IC50 [3]: > 10000 nM
IC50 [4]: > 10000 nM
IC50 [5]: > 10000 nM
IC50 [6]: > 10000 nM
viability, T/C (second compound 0.0316 µM, first compound 0.0316 µM): 123%
viability, T/C (second compound 0.0316 µM, first compound 0.1 µM): 101%
viability, T/C (second compound 0.0316 µM, first compound 0.316 µM): 102%
viability, T/C (second compound 0.0316 µM, first compound 1 µM): 78.9%
viability, T/C (second compound 0.0316 µM, first compound 3.16 µM): 87.8%
viability, T/C (second compound 0.0316 µM, first compound 10 µM): 58.8%
viability, T/C (second compound 0.1 µM, first compound 0.0316 µM): 106%
viability, T/C (second compound 0.1 µM, first compound 0.1 µM): 100%
viability, T/C (second compound 0.1 µM, first compound 0.316 µM): 86.7%
viability, T/C (second compound 0.1 µM, first compound 1 µM): 81.7%
viability, T/C (second compound 0.1 µM, first compound 3.16 µM): 73.5%
viability, T/C (second compound 0.1 µM, first compound 10 µM): 62.1%
viability, T/C (second compound 0.316 µM, first compound 0.0316 µM): 97.2%
viability, T/C (second compound 0.316 µM, first compound 0.1 µM): 86.3%
viability, T/C (second compound 0.316 µM, first compound 0.316 µM): 73%
viability, T/C (second compound 0.316 µM, first compound 1 µM): 84.1%
viability, T/C (second compound 0.316 µM, first compound 3.16 µM): 69.9%
viability, T/C (second compound 0.316 µM, first compound 10 µM): 63%
viability, T/C (second compound 1 µM, first compound 0.0316 µM): 84.8%
viability, T/C (second compound 1 µM, first compound 0.1 µM): 81.8%
viability, T/C (second compound 1 µM, first compound 0.316 µM): 101%
viability, T/C (second compound 1 µM, first compound 1 µM): 75.3%
viability, T/C (second compound 1 µM, first compound 3.16 µM): 74.7%
viability, T/C (second compound 1 µM, first compound 10 µM): 57.2%
viability, T/C (second compound 3.16 µM, first compound 0.0316 µM): 103%
viability, T/C (second compound 3.16 µM, first compound 0.1 µM): 96.8%
viability, T/C (second compound 3.16 µM, first compound 0.316 µM): 94.7%
viability, T/C (second compound 3.16 µM, first compound 1 µM): 80.5%
viability, T/C (second compound 3.16 µM, first compound 3.16 µM): 69.8%
viability, T/C (second compound 3.16 µM, first compound 10 µM): 63%
viability, T/C (second compound 10 µM, first compound 0.0316 µM): 97.6%
viability, T/C (second compound 10 µM, first compound 0.1 µM): 87%
viability, T/C (second compound 10 µM, first compound 0.316 µM): 83.6%
viability, T/C (second compound 10 µM, first compound 1 µM): 80.3%
viability, T/C (second compound 10 µM, first compound 3.16 µM): 75%
viability, T/C (second compound 10 µM, first compound 10 µM): 58.1%

CCn1c(-c2cccnc2C(C)OC)c2c3cc(ccc31)N1CCOC(CC(NC(=O)C(C(C)C)N(C)C(=O)C3(F)CCN(C(=O)C#CC(C)(C)N(C)C)CC3)C(=O)N3CCCC(N3)C(=O)OCC(C)(C)C2)C1 (stereo unspecified)
viability, T/C (compound 0.003 µM): 104% [middle of 8 runs]
viability, T/C (compound 0.00949 µM): 107% [middle of 8 runs]
viability, T/C (compound 0.03 µM): 93.8% [middle of 8 runs]
viability, T/C (compound 0.0949 µM): 93% [middle of 8 runs]
viability, T/C (compound 0.3 µM): 81.7% [middle of 8 runs]
IC50 (compound alone, run of 05/20/2024): > 300 nM

CC1(C)CCC(Nc2ncc(C(F)(F)F)c(-c3c[nH]c4c(P(C)(C)=O)c(C#N)ccc34)n2)CN1 (stereo unspecified) + C#Cc1c(F)ccc2cc(O)cc(-c3ncc4c(N5CC6CCC(C5)N6)nc(OCC56CCCN5CC(F)C6)nc4c3F)c12
IC50 [1]: > 300 nM
IC50 [2]: > 300 nM
IC50 [3]: > 300 nM
IC50 [4]: 262 nM
IC50 [5]: > 300 nM
IC50 [6]: 114 nM
viability, T/C (second compound 0.0316 µM, first compound 0.000949 µM): 106%
viability, T/C (second compound 0.0316 µM, first compound 0.003 µM): 98.2%
viability, T/C (second compound 0.0316 µM, first compound 0.00949 µM): 83.8%
viability, T/C (second compound 0.0316 µM, first compound 0.03 µM): 59.8%
viability, T/C (second compound 0.0316 µM, first compound 0.0949 µM): 61.8%
viability, T/C (second compound 0.0316 µM, first compound 0.3 µM): 56.2%
viability, T/C (second compound 0.1 µM, first compound 0.000949 µM): 98.5%
viability, T/C (second compound 0.1 µM, first compound 0.003 µM): 114%
viability, T/C (second compound 0.1 µM, first compound 0.00949 µM): 79.1%
viability, T/C (second compound 0.1 µM, first compound 0.03 µM): 59.7%
viability, T/C (second compound 0.1 µM, first compound 0.0949 µM): 56.9%
viability, T/C (second compound 0.1 µM, first compound 0.3 µM): 50%
viability, T/C (second compound 0.316 µM, first compound 0.000949 µM): 106%
viability, T/C (second compound 0.316 µM, first compound 0.003 µM): 121%
viability, T/C (second compound 0.316 µM, first compound 0.00949 µM): 84.5%
viability, T/C (second compound 0.316 µM, first compound 0.03 µM): 55.8%
viability, T/C (second compound 0.316 µM, first compound 0.0949 µM): 53.1%
viability, T/C (second compound 0.316 µM, first compound 0.3 µM): 60.5%
viability, T/C (second compound 1 µM, first compound 0.000949 µM): 118%
viability, T/C (second compound 1 µM, first compound 0.003 µM): 96%
viability, T/C (second compound 1 µM, first compound 0.00949 µM): 80.5%
viability, T/C (second compound 1 µM, first compound 0.03 µM): 68.1%
viability, T/C (second compound 1 µM, first compound 0.0949 µM): 53.5%
viability, T/C (second compound 1 µM, first compound 0.3 µM): 50.4%
viability, T/C (second compound 3.16 µM, first compound 0.000949 µM): 107%
viability, T/C (second compound 3.16 µM, first compound 0.003 µM): 97.9%
viability, T/C (second compound 3.16 µM, first compound 0.00949 µM): 84.5%
viability, T/C (second compound 3.16 µM, first compound 0.03 µM): 63.8%
viability, T/C (second compound 3.16 µM, first compound 0.0949 µM): 58.3%
viability, T/C (second compound 3.16 µM, first compound 0.3 µM): 53%
viability, T/C (second compound 10 µM, first compound 0.000949 µM): 99.3%
viability, T/C (second compound 10 µM, first compound 0.003 µM): 89.3%
viability, T/C (second compound 10 µM, first compound 0.00949 µM): 81.2%
viability, T/C (second compound 10 µM, first compound 0.03 µM): 68.7%
viability, T/C (second compound 10 µM, first compound 0.0949 µM): 46.2%
viability, T/C (second compound 10 µM, first compound 0.3 µM): 46.4%
